Drawing on ChEMBL document CHEMBL2406926, “C-Glucopyranosyl-1,2,4-triazoles As New Potent Inhibitors of Glycogen Phosphorylase” (ACS Med Chem Lett, 2013), this text covers Ki for three compounds.

In general, Ki refers to the dissociation constant of the complex between target and ligand, obtained from inhibition or displacement. A high value points to weaker binding.

In the test the target is T1, Glycogen phosphorylase, muscle form (Oryctolagus cuniculus, UniProt P00489).
T1 sequence (P00489 whole entry): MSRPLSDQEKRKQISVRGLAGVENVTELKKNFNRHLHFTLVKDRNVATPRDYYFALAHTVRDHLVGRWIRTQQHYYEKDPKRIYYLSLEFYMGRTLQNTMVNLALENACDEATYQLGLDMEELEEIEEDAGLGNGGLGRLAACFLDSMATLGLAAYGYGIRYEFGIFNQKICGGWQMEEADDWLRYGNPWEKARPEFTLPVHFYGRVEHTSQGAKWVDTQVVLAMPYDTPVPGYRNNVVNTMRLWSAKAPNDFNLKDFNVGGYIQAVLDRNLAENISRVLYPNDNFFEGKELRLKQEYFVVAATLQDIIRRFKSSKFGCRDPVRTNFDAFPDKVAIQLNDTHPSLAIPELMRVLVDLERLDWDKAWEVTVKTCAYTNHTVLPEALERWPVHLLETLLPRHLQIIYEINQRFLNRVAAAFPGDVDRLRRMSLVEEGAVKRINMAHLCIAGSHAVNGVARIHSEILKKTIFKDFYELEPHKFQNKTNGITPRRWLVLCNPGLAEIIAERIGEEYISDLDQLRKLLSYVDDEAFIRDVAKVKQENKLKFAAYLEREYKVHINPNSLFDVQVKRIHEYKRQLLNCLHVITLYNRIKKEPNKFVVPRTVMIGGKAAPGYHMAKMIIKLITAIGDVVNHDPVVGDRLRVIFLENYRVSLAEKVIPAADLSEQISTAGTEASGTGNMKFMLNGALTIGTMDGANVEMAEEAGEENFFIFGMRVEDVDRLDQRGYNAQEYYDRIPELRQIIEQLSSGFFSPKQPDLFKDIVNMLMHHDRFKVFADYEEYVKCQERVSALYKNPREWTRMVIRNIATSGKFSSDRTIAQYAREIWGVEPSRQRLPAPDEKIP
Put plainly: Competitive inhibition of rabbit muscle glycogen phosphorylase b. The arrangement: species or system Muscle tissue.

In turn, `OCc1n[nH]c([C@@H]2O[C@H](CO)[C@@H](O)[C@H](O)[C@H]2O)n1` registered a Ki of 105 µM.
As for `OC[C@H]1O[C@@H](c2nnc(-c3ccccc3)[nH]2)[C@H](O)[C@@H](O)[C@@H]1O`, the figure is 7 µM.
As for `OC[C@H]1O[C@@H](c2nc(-c3ccc4ccccc4c3)n[nH]2)[C@H](O)[C@@H](O)[C@@H]1O`, the figure is 0.41 µM.
